Reference: patent US20040109845A1, “Method for inhibiting articular cartilage matrix calcification” (priority 2001, published 2004)

Experiments:
[1] = test system: alkaline phosphatase (AP); experiment: AP activity of cultured meniscal cells; format: cell-based, human; settings: 48 h, 10 ng/ml
Method: Meniscal cells (from the same donors used in FIG. 3 above) were released from the matrix with collagenase digestion, and grown in monolayer culture for 72 hrs, then trypsinized and plated in 35 mm dishes (containing 3×10^5 cells) and allowed to adhere overnight. Cells were then treated for 48 h with 10 ng/ml of TGFβ or IL-1β (10 ng/ml) in 1% FCS-containing DMEM high glucose medium. The cells were collected and lysed for the TGase (FIG. 5A), NTPPPH (FIG. 5B), and AP (FIG. 5C) assays as described in the Methods. Five micrograms of soluble protein was studied in triplicate for each assay performed as previously described. Results were analyzed by linear regression, with results indicated.
PPi was determined by differential adsorption on activated charcoal of UDP-D-[6-^3H] glucose (Amersham, Chicago, Ill.) from the reaction product 6-phospho [6-^3H] gluconate (28). Units of NTPPPH and AP were designated as micromoles of substrate hydrolyzed per hour (per μg DNA in each sample) (28). NO release by cultured meniscal cells was measured using the Greiss reaction (33). Concentrations or specific activities of PPi, NTPPPH, and AP were equalized for cellular DNA concentrations in each well.

[2] = test system: TGase activity in knee meniscal cells and TC28 cells; experiment: TGase activity in nonadherent nodule-forming culture on polyHEME; format: cell-based, human; settings: polyHEME plates, β-glycerophosphate, ascorbate, dexamethasone, up to 10 days; cytokines 10 ng/ml or TGase transfection
Method: FIG. 10 refers to effects of direct Factor XIIIa and tTGase expression on TGase activity in meniscal cells and TC28 cells. Human chondrocytic TC28 cells or normal knee meniscal cells (5×10^5), were plated in 60 mm dishes and allowed to adhere overnight, as described in the Methods. Two μg of plasmid DNAs or empty plasmid vector were then transfected, performed as described above. After 24 hrs, the cells were removed from the dishes and plated on polyHEME-coated tissue culture plates and media supplemented with 10 mM P-glycerophosphate, ascorbatte (50 μg/ml) and dexamethasone (10^−8 M), which stimulated the cells to form mineralizing nodules for 3-10 days in culture. For comparison purposes, cells were treated only with IL-1 or TGFβ (10 ng/ml each) for up to 10 days. At each time point designated, the cell nodules were collected and lysed, and TGase activity then determined as previously described. For meniscal cells, data pooled from 6 donors studied in triplicate. For TC28 cells, n=6 each, studied in triplicate. Statistics not indicated on this graph, but p<0.05 for the increases in TGase activities in response to both Factor XIIIa and tTGase transfection, and for IL-1 treatment, at all time points.
TGase activity was measured by modifications to a previously described method (35). Specifically, we coated 96 well ImmunoModule plates (Nunc, Rochester, N.Y.) with 200 μl of 20 mg/ml N,N-dimethylcasein for 1 hr at 23° C. The N,N-dimethylcasein was removed and nonspecific protein binding was blocked by adding 3% BSA in 100 mM Tris, pH 8.5, 150 mM NaCl, 0.05% Tween-20 (TBST) to each well for an additional 1 hr at 23° C. Then, aliquots of 5 μg of total cellular protein from meniscal or TC28 cells that had been lysed and sonicated (in 5 mM Tris HCl, 0.25 M sucrose, 0.2 mM MgSO4, 2 mM DTT, 0.4 mM PMSF, 0.4% Triton X100, pH 7.5), were added to the plate in triplicate. To measure TGase in extracts of whole menisci, 50 mg dry weight of tissue from the central zone of each medial meniscus was used as the source (after solubilization and sonication) for aliquots of 5 μg of soluble protein. Fifty μl of solution A (100 mM Tris, pH 8.5 and 20 mM CaCl2) was added to all samples for TGase assay, followed by the addition of 50 μl of solution B (100 mM Tris, pH 8.5, 40 mM DTT and freshly added 2 mM 5-(Biotinamido) pentylamine (BP)). The plates were incubated for 1 hr at 37° C. The wells were washed once with TBST containing 1 mM EDTA and then three times with TBST. […] Readings at OD410 were taken over 15 minutes. […] TGase activity was designated as the amount of BP incorporated into casein (per μg cellular DNA, determined chromogenically following precipitation in perchlorate (28), or, where indicated, per μg protein, determined as previously described (28)). […]

IL-1β: Human recombinant IL-1β purchased from R&D Systems
AP activity [1]: did not significantly change
TGase activity under mineralizing nonadherent conditions [2]: induced significant increases in TGase activity
